Patent US20150133509A1, “TREE TRUNK INJECTION” (NIPPON SODA CO., LTD., priority 2012, published 2015)
Like-named read-outs stand apart in the source and are kept apart here.

Legend:
Raffaelea quercivora = experiment: Flat plate antifungal test (PDA medium); type: cell-based; settings: for inhibition at 1 ppm / inhibition at 10 ppm / inhibition at 100 ppm / inhibition at 0.01 ppm / inhibition at 0.1 ppm: Dryadomyces quercivorus, read-out: Inhibition rate of hyphal elongation; for antifungal effect on Raffaelea quercivora at low concentrations: concentrations of less than about 1 ppm; for inhibition at 0.01 ppm: 0.01 ppm in PDA medium
Protocol: The tree trunk injection agents was obtained by dissolving triflumizole to be each concentration of 100 ppm 10 ppm, 1 ppm, 0.1 pmm, and 0.01 ppm in solution for PDA (potato dextrose agar) medium. These tree trunk injection agents were poured into Petri dishes with inner diameter of 9 cm, and allowed to solidify to produce plate mediums with diameter of 9 cm. In this medium, the flora disk of Raffaelea quercivora was plated. This was cultured statically for 3 days to 4 days at 25° C. Then, the diameter of the flora was measured, and the inhibition rate of hyphal elongation was calculated. The inhibition rate of hyphal elongation (%) was calculated based on the formula: ((flora diameter of untreated group−flora diameter of medium containing triflumizole)/flora diameter of untreated group)×100.

[1] = test system: fungi which cause Laurel wilt; settings: Non-Patent Document 1; cited from earlier work
[2] = 1 ppm in PDA medium, 3 to 4 days at 25° C.
[3] = 10 ppm in PDA medium, 3 to 4 days at 25° C.
[4] = 100 ppm in PDA medium, 3 to 4 days at 25° C.
[5] = 0.1 ppm in PDA medium, 3 to 4 days at 25° C.

Row | Structure (SMILES) | inhibition at 1 ppm (Raffaelea quercivora; [2]) [%] | inhibition at 10 ppm (Raffaelea quercivora; [3]) [%] | inhibition at 100 ppm (Raffaelea quercivora; [4]) [%] | antifungal effect on Raffaelea quercivora at low concentrations (Raffaelea quercivora) | inhibition at 0.01 ppm (Raffaelea quercivora; 3 to 4 days at 25° C.) [%] | inhibition at 0.1 ppm (Raffaelea quercivora; [5]) [%] | effectiveness for fungi which cause Laurel wilt [1] | inhibition at 0.1 ppm (Raffaelea quercivora) [%] | inhibition at 1 ppm (Raffaelea quercivora) [%] | inhibition at 10 ppm (Raffaelea quercivora) [%] | inhibition at 100 ppm (Raffaelea quercivora) [%]
1 | CCCCC(O)(Cn1cncn1)c1ccc(Cl)cc1Cl (stereo not shown) [hexaconazole] | 33 | 98 | 100 | not exhibited any antifungal effect |  |  |  |  |  |  | 
2 | CC1(C)CCC(Cc2ccc(Cl)cc2)C1(O)Cn1cncn1 (stereo not shown) [metconazole] | 97 | 98 | 100 |  | 35 | 59 |  |  |  |  | 
3 | CCCCC(C#N)(Cn1cncn1)c1ccc(Cl)cc1 (stereo not shown) [myclobutanil] | 44 | 96 | 100 | not exhibited any antifungal effect |  |  |  |  |  |  | 
4 | CCCC1COC(Cn2cncn2)(c2ccc(Cl)cc2Cl)O1 (stereo not shown) [propiconazole] |  |  |  |  |  |  | highly effective |  |  |  | 
5 | FC(F)C(F)(F)OCC(Cn1cncn1)c1ccc(Cl)cc1Cl (stereo not shown) [tetraconazole] | 60 | 100 | 100 | not exhibited any antifungal effect |  |  |  |  |  |  | 
6 | CCCOC/C(=N\c1ccc(Cl)cc1C(F)(F)F)n1ccnc1 [triflumizole] | 96 | 100 | 100 |  | 25 | 95 |  |  |  |  | 
7 | O=CNC(N1CCN(C(NC=O)C(Cl)(Cl)Cl)CC1)C(Cl)(Cl)Cl (stereo not shown) [triforine] |  |  |  | not exhibited any antifungal effect |  |  |  | 0 | 0 | 26 | 100
